Assay results from patent US4593104A, “2-halo-N-(azole-1-yl-methyl)-substituted acetanilides” (BASF Aktiengesellschaft, priority 1976, dated 1986).

How the values were obtained:
[1] = system: Alopec. myosur.; assay: preemergence treatment in the greenhouse, % damage; format: in vivo
Source text: (§1) The vessels employed were plastic flowerpots having a volume of 300 cm^3; the substrate was a sandy loam containing about 1.5% humus. The seeds of the test plants (see Table 1) were sown shallow, and separated according to species. In the case of Cyperus esculentus, pregerminated tubers were planted. In the preemergence treatment, the active ingredients were then immediately applied to the surface of the soil. They were suspended or emulsified in water as the vehicle, and sprayed through atomizing nozzles. After the agents had been applied, the vessels were lightly sprinkler-irrigated to set germination and growth going, and to activate the chemical agents. The vessels were then covered with transparent plastic hoods until the plants had taken root. This cover ensured uniform germination of the test plants (to the extent that this was not impaired by the chemicals), and prevented readily volatile substances from evaporating.
(§2) For postemergence treatment, the plants were first grown to a height of from 3 to 10 cm, depending on their habit, before treated. Hoods were not placed on the pots. The experiments were set up in the greenhouse, hotter areas (25° to 40° C.) being preferred for heat-loving species, and 15° to 30° C. for plants from moderate climates. The experiments were carried out for from 4 to 6 weeks. During this period the plants were tended and their reaction to the various treatments was assessed. The following tables contain the substances investigated, the application rates in kg/ha of active ingredient, and the test plant species. Assessments were made on a 0 to 100 scale, 0 denoting no damage or normal emergence, and 100 denoting no emergence or complete destruction of at least the visible plant parts.

[2] = system: Amar. retro.; assay: preemergence treatment in the greenhouse, % damage; format: in vivo
Source text: as §1, §2

[3] = system: Cyp. diff.; assay: preemergence treatment in the greenhouse, % damage; format: in vivo
Source text: as §1, §2

[4] = system: Echin. c.g.; assay: preemergence treatment in the greenhouse, % damage; format: in vivo
Source text: as §1, §2

[5] = system: Euph. gen.; assay: preemergence treatment in the greenhouse, % damage; format: in vivo
Source text: as §1, §2

[6] = system: Matric. spp.; assay: preemergence treatment in the greenhouse, % damage; format: in vivo
Source text: as §1, §2

[7] = system: Setaria spp.; assay: preemergence treatment in the greenhouse, % damage; format: in vivo
Source text: as §1, §2

[8] = system: Sorgh. halep.; assay: preemergence treatment in the greenhouse, % damage; format: in vivo
Source text: as §1, §2

[9] = system: Stell. med.; assay: preemergence treatment in the greenhouse, % damage; format: in vivo
Source text: as §1, §2

[10] = system: Glyc. max; assay: preemergence treatment in the greenhouse, % damage; format: in vivo, Glycine max
Source text: as §1, §2

[11] = system: Gossyp. hirs.; assay: preemergence treatment in the greenhouse, % damage; format: in vivo, Gosspyium hirsutum
Source text: as §1, §2

[12] = system: Solanum nigrum; assay: preemergence treatment in the greenhouse, % damage; format: in vivo
Source text: as §1, §2

[13] = system: Cyper. escul.; assay: preemergence treatment in the greenhouse, % damage; format: in vivo, Cyperus esculentus
Source text: as §1, §2

[14] = system: Alopec. myosur.; assay: postemergence application in the greenhouse, % damage; format: in vivo
Source text: as §1, §2

[15] = system: Avena fat.; assay: as above; format: in vivo
Source text: as §1, §2

[16] = system: Chrys. seget.; assay: as above; format: in vivo
Source text: as §1, §2

[17] = system: Matric. spp.; assay: as above; format: in vivo
Source text: as §1, §2

[18] = system: Setaria spp.; assay: as above; format: in vivo
Source text: as §1, §2

[19] = system: Stell. med.; assay: as above; format: in vivo
Source text: as §1, §2

[20] = system: Cyper. escul.; assay: as above; format: in vivo, Cyperus esculentus
Source text: as §1, §2

Cc1ccc(C)c(N(Cn2cccn2)C(=O)CCl)c1C [Compound 14]
% damage ([1]; 0.25 kg/ha): 95%
% damage ([1]; 0.5 kg/ha): 100%
% damage ([1]; 1.0 kg/ha): 100%
% damage ([2]; 0.25 kg/ha): 100%
% damage ([2]; 0.5 kg/ha): 100%
% damage ([2]; 1.0 kg/ha): 100%
% damage ([3]; 0.25 kg/ha): 100%
% damage ([3]; 0.5 kg/ha): 100%
% damage ([3]; 1.0 kg/ha): 100%
% damage ([4]; 0.25 kg/ha): 100%
% damage ([4]; 0.5 kg/ha): 100%
% damage ([4]; 1.0 kg/ha): 100%
% damage ([5]; 0.25 kg/ha): 80%
% damage ([5]; 0.5 kg/ha): 95%
% damage ([5]; 1.0 kg/ha): 95%
% damage ([6]; 0.25 kg/ha): 80%
% damage ([6]; 0.5 kg/ha): 100%
% damage ([6]; 1.0 kg/ha): 100%
% damage ([7]; 0.25 kg/ha): 100%
% damage ([7]; 0.5 kg/ha): 100%
% damage ([7]; 1.0 kg/ha): 100%
% damage ([8]; 0.25 kg/ha): 95%
% damage ([8]; 0.5 kg/ha): 95%
% damage ([8]; 1.0 kg/ha): 100%
% damage ([9]; 0.25 kg/ha): 90%
% damage ([9]; 0.5 kg/ha): 100%
% damage ([9]; 1.0 kg/ha): 100%
% damage ([10]; 0.25 kg/ha): 10%
% damage ([10]; 0.5 kg/ha): 10%
% damage ([10]; 1.0 kg/ha): 20%
% damage ([11]; 0.25 kg/ha): 0%
% damage ([11]; 0.5 kg/ha): 0%
% damage ([11]; 1.0 kg/ha): 15%

CCc1cccc(C)c1N(Cn1ccc(C)n1)C(=O)CCl [Compound 68]
% damage ([2]; 0.25 kg/ha): 95%
% damage ([2]; 1.0 kg/ha): 100%
% damage ([2]; 2.0 kg/ha): 100%
% damage ([4]; 0.25 kg/ha): 95%
% damage ([4]; 1.0 kg/ha): 95%
% damage ([4]; 2.0 kg/ha): 95%
% damage ([5]; 0.25 kg/ha): 10%
% damage ([5]; 1.0 kg/ha): 60%
% damage ([5]; 2.0 kg/ha): 75%
% damage ([7]; 0.25 kg/ha): 95%
% damage ([7]; 1.0 kg/ha): 100%
% damage ([7]; 2.0 kg/ha): 100%
% damage ([12]; 0.25 kg/ha): 95%
% damage ([12]; 1.0 kg/ha): 100%
% damage ([12]; 2.0 kg/ha): 100%
% damage ([10]; 0.25 kg/ha): 0%
% damage ([10]; 1.0 kg/ha): 0%
% damage ([10]; 2.0 kg/ha): 10%
% damage ([11]; 0.25 kg/ha): 0%
% damage ([11]; 1.0 kg/ha): 5%
% damage ([11]; 2.0 kg/ha): 5%
% damage ([13]; 0.25 kg/ha): 65%
% damage ([13]; 1.0 kg/ha): 80%
% damage ([13]; 2.0 kg/ha): 80%
% damage ([14]; 1.0 kg/ha): 90%
% damage ([14]; 2.0 kg/ha): 90%
% damage ([15]; 1.0 kg/ha): 90%
% damage ([15]; 2.0 kg/ha): 90%
% damage ([16]; 1.0 kg/ha): 40%
% damage ([16]; 2.0 kg/ha): 50%
% damage ([17]; 1.0 kg/ha): 80%
% damage ([17]; 2.0 kg/ha): 80%
% damage ([18]; 1.0 kg/ha): 90%
% damage ([18]; 2.0 kg/ha): 95%
% damage ([19]; 1.0 kg/ha): 60%
% damage ([19]; 2.0 kg/ha): 60%
% damage ([20]; 1.0 kg/ha): 85%
% damage ([20]; 2.0 kg/ha): 85%

CCc1cccc(C)c1N(Cn1cncn1)C(=O)CCl [Compound 189]
% damage ([2]; 0.5 kg/ha): 30%
% damage ([2]; 1.0 kg/ha): 95%
% damage ([2]; 2.0 kg/ha): 95%
% damage ([4]; 0.5 kg/ha): 90%
% damage ([4]; 1.0 kg/ha): 95%
% damage ([4]; 2.0 kg/ha): 95%
% damage ([5]; 0.5 kg/ha): 90%
% damage ([5]; 1.0 kg/ha): 95%
% damage ([5]; 2.0 kg/ha): 95%
% damage ([7]; 0.5 kg/ha): 75%
% damage ([7]; 1.0 kg/ha): 95%
% damage ([7]; 2.0 kg/ha): 100%
% damage ([12]; 0.5 kg/ha): 30%
% damage ([12]; 1.0 kg/ha): 95%
% damage ([12]; 2.0 kg/ha): 95%
% damage ([10]; 0.5 kg/ha): 0%
% damage ([10]; 1.0 kg/ha): 0%
% damage ([10]; 2.0 kg/ha): 0%
% damage ([11]; 0.5 kg/ha): 0%
% damage ([11]; 1.0 kg/ha): 20%
% damage ([11]; 2.0 kg/ha): 20%
% damage ([13]; 0.5 kg/ha): 50%
% damage ([13]; 1.0 kg/ha): 60%
% damage ([13]; 2.0 kg/ha): 80%
% damage ([14]; 1.0 kg/ha): 70%
% damage ([14]; 2.0 kg/ha): 70%
% damage ([15]; 1.0 kg/ha): 60%
% damage ([15]; 2.0 kg/ha): 60%
% damage ([16]; 1.0 kg/ha): 0%
% damage ([16]; 2.0 kg/ha): 20%
% damage ([17]; 1.0 kg/ha): 30%
% damage ([17]; 2.0 kg/ha): 60%
% damage ([18]; 1.0 kg/ha): 80%
% damage ([18]; 2.0 kg/ha): 85%
% damage ([19]; 1.0 kg/ha): 0%
% damage ([19]; 2.0 kg/ha): 40%
% damage ([20]; 1.0 kg/ha): 65%
% damage ([20]; 2.0 kg/ha): 65%

Cc1cc(C)n(CN(C(=O)CCl)c2c(C)ccc(C)c2C)n1 [Compound 47]
% damage ([1]; 0.25 kg/ha): 95%
% damage ([1]; 0.5 kg/ha): 100%
% damage ([1]; 1.0 kg/ha): 100%
% damage ([2]; 0.25 kg/ha): 100%
% damage ([2]; 0.5 kg/ha): 100%
% damage ([2]; 1.0 kg/ha): 100%
% damage ([3]; 0.25 kg/ha): 100%
% damage ([3]; 0.5 kg/ha): 100%
% damage ([3]; 1.0 kg/ha): 100%
% damage ([4]; 0.25 kg/ha): 95%
% damage ([4]; 0.5 kg/ha): 95%
% damage ([4]; 1.0 kg/ha): 100%
% damage ([5]; 0.25 kg/ha): 10%
% damage ([5]; 0.5 kg/ha): 10%
% damage ([5]; 1.0 kg/ha): 20%
% damage ([6]; 0.25 kg/ha): 80%
% damage ([6]; 0.5 kg/ha): 90%
% damage ([6]; 1.0 kg/ha): 100%
% damage ([7]; 0.25 kg/ha): 100%
% damage ([7]; 0.5 kg/ha): 100%
% damage ([7]; 1.0 kg/ha): 100%
% damage ([8]; 0.25 kg/ha): 85%
% damage ([8]; 0.5 kg/ha): 90%
% damage ([8]; 1.0 kg/ha): 95%
% damage ([9]; 0.25 kg/ha): 30%
% damage ([9]; 0.5 kg/ha): 80%
% damage ([9]; 1.0 kg/ha): 100%
% damage ([10]; 0.25 kg/ha): 20%
% damage ([10]; 0.5 kg/ha): 20%
% damage ([10]; 1.0 kg/ha): 30%
% damage ([11]; 0.25 kg/ha): 0%
% damage ([11]; 0.5 kg/ha): 0%
% damage ([11]; 1.0 kg/ha): 0%
